Experimental data from US7169778B2, “Pteridinones as kinase inhibitors” (Warner-Lambert Company, priority 1999, dated 2007).

Legend:
[1] = biological target: N-terminal truncated Wee 1 (Homo sapiens, UniProt P30291); experiment: Wee 1 OY kinase assay; type: biochemical; conditions: read-out: WEE1OY IC50
Method: These kinase assays are carried out on 96-well filter plates (Millpore, Cat. MADPN0B50) in 50 μL kinase assay buffer (50 mM Tris, pH 8.0, 10 mM NaCl, 10 mM MgCl2, 10 μM ATP with 0.25 μCi [r-32P]ATP, 1 mM DTT) with 0.1 μg purified N-terminal truncated Wee 1 and 6 μg poly(Orn, Tyr)4:1 (Sigma, P4534). The assay is started by adding ATP and incubating at room temperature for 20 minutes with shaking. The reactions are terminated by adding 50 μL ice-cold 20% TCA (trichloracetic acid) with 0.1 M sodium pyrophosphate and shaking the resultant mixture for 1 minute. The plate is then incubated at 4° C. for 1 hour to allow protein to precipitate. These plates are then washed 5 times with 200 μL ice-cold 10% TCA and with 0.1 M sodium pyrophosphate per wash. Twenty-five microliters scintillation liquid is then added to each well, and the plate is counted in Wallac's MicroBeta counter 1450.

C-src kinase = C-src kinase (Homo sapiens, UniProt P12931); experiment: C-src kinase assay; type: biochemical
Method: C-src kinase was purified from baculovirus infected insect cell lysates using an antipeptide monoclonal antibody directed against the N-terminal amino acids (amino acids 2–17) of c-src. The antibody, covalently linked to 0.65 μm latex beads, was added to a suspension of insect cell lysis buffer comprised of 150 mM NaCl, 50 mM Tris pH 7.5, 1 mM DTT, 1% NP-40, 2 mM EGTA, 1 mM sodium vanadate, 1 mM PMSF, 1 μg/mL each of leupeptin, pepstatin, and aprotinin. Insect cell lysate containing c-src protein was incubated with these beads for 3 to 4 hours at 4° C. with rotation. At the end of the lysate incubation, the beads were rinsed three times in lysis buffer, resuspended in lysis buffer containing 10% glycerol, and frozen. These latex beads were thawed, rinsed three times in assay buffer (40 mM Tris, pH 7.5, 5 mM mgCl2) and suspended in the same buffer. In a Millipore 96-well plate with a 0.65 μm polyvinylidine membrane bottom were added the reaction components: 10 μL C-src beads, 10 μL of 2.5 mg/mL poly GluTyr substrate, 5 μM ATP containing 0.2 μCi labeled ^32P-ATP, 5 μL DMSO containing inhibitors or as a solvent control, and buffer to make the final volume 125 μL. The reaction was started at room temperature by addition of the ATP and quenched 10 minutes later by the addition of 125 μL of 30% TCA, 0.1 M sodium pyrophosphate for 5 minutes on ice. The plate was then filtered and the wells washed with two […] aliquots of 15% TCA, 0.1 M pyrophosphate. The filters were then punched, counted in a liquid scintillation counter, and the data examined for inhibitory activity in comparison to a known inhibitor such as erbstatin. The method is also described in J. Med. Chem., 1994;37:598–609.

[2] = biological target: T1, human FGF-1 (flg) receptor tyrosine kinase (Homo sapiens, UniProt P11362); experiment: FGF receptor tyrosine kinase assay; type: biochemical; conditions: read-out: FGF % @ concentration; for inhibition at 5 µM: @ 5 (unit μm); for inhibition at 0.5 µM: @ 0.5 (unit μm)
T1 construct: amplify a fragment of DNA that codes for the intracellular tyrosine kinase domain; made in house; host or cells: SF9 insect cells (baculovirus)
Excerpt: (§1) Full-length cDNAs for the mouse PDGF-β and human FGF-1 (flg) receptor tyrosine kinases were obtained from J. Escobedo and prepared as described in J. Biol. Chem., 1991;262:1482–1487. PCR primers were designed to amplify a fragment of DNA that codes for the intracellular tyrosine kinase domain. The fragment was inserted into a baculovirus vector, cotransfected with AcMNPV DNA, and the recombinant virus isolated. SF9 insect cells were infected with the virus to overexpress the protein, and the cell lysate was used for the assay. Assays were performed in 96-well plates (100 μL/incubation/well), and conditions were optimized to measure the incorporation of ^32P from γ^32P-ATP into a glutamate-tyrosine co-polymer substrate. Briefly, to each well was added 82.5 μL of incubation buffer containing 25 mM Hepes (pH 7.0), 150 mM NaCl, 0.1% Triton X-100, 0.2 mM PMSF, 0.2 mM Na3VO4, 10 mM MnCl2, and 750 μg/mL of Poly (4:1) glutamate-tyrosine followed by 2.5 μL of inhibitor and 5 μL of enzyme lysate (7.5 μg/μL FGF-TK or 6.0 μg/μL PDGF-TK) to initiate the reaction. Following a 10 minute incubation at 25° C., […] of γ^32P-ATP (0.4 μCi plus 50 μM ATP) was added to each well, and samples were incubated for an additional 10 minutes at 25° C. The reaction was terminated by the addition of 100 μL of 30% TCA containing 20 mM sodium pyrophosphate and precipitation of material onto glass fiber mats (Wallac). Filters were washed three times with 15% TCA containing 100 mM sodium pyrophosphate, and the radioactivity retained on the filters counted in a Wallac 1250 Betaplate reader. Nonspecific activity was defined as radioactivity retained on the filters following incubation of samples with buffer alone (no enzyme). Specific enzymatic activity (enzyme plus buffer) was defined as total activity minus nonspecific activity. The concentration of a compound that inhibited specific activity by 50% (IC50) was determined based on the inhibition curve.

[3] = biological target: T2, mouse PDGF-β receptor tyrosine kinase (Mus musculus, UniProt P05622); experiment: PDGF receptor tyrosine kinase assay; type: biochemical
T2 construct: amplify a fragment of DNA that codes for the intracellular tyrosine kinase domain; made in house; host or cells: SF9 insect cells (baculovirus)
Excerpt: as §1

cdk4/cyclin D1 complex = cdk4/cyclin D1 complex (Homo sapiens, UniProt P11802); experiment: Cyclin-dependent kinase 4 (CDK4) assay; type: biochemical; conditions: cyclin dependent kinase 4/cyclin D1 complex; read-out: CDK4D IC50
Method: Enzyme assays for IC50 determinations (Table 1) and kinetic evaluation were performed in 96-well filter plates (Millipore MADVN6550) The total volume was 0.1 mL containing a final concentration of 20 mM TRIS (tris[hydroxmethyl]aminomethane), at pH 7.4, 50 mM NaCl, 1 mM dithiothreitol, 10 mM mgCl2, 25 μM ATP containing 0.25 μCi of [^32P]ATP, 20 ng of cdk4/cyclin D1 complex, 1 μg of retinoblastoma and appropriate dilutions of a compound of the present invention. All components except the ATP were added to the wells, and the plate was placed on a plate mixer for 2 minutes. The reaction was started by adding [^32P]ATP and the plate incubated at 25° C. for 15 minutes. The reaction was terminated by addition of 0.1 mL of 20% TCA. The plate was kept at 4° C. for at least 1 hour to allow the substrate to precipitate. The wells were then washed five times with 0.2 mL of 10% TCA and ^32p incorporation determined with a beta plate counter (Wallac Inc., Gaithersburg, Md.).

cdk2/cyclinA = cdk2/cyclinA (Homo sapiens, UniProt P24941); experiment: Cyclin-dependent kinase assay cdk2/cyclinA; type: biochemical; conditions: cyclin dependent kinase 2/cyclin A complex; read-out: CDK2A IC50
Method: (§2) All components except the ATP were added to the wells, and the plate was placed on a plate mixer for 2 minutes. The reaction was begun by addition of [^32P]ATP, and the plate was incubated at 25° C. for 15 minutes. The reaction was terminated by addition of 0.1 mL of 20% TCA. The plate was kept at 4° C. for at least 1 hour to allow the substrate to precipitate. The wells were then washed five times with 0.2 mL of 10% TCA and ^32P incorporation determined using a beta plate counter (Wallac Inc., Gaithersburg, Md.).

cdc2/cyclinB = cdc2/cyclinB (Homo sapiens, UniProt P06493); experiment: Cyclin-dependent kinase assay cdc2/cyclinB; type: biochemical; conditions: cyclin dependent kinase 1/cyclin B complex; read-out: CDK1B IC50
Method: as §2

cdk2/cyclinE = cdk2/cyclinE (Homo sapiens, UniProt P24941); experiment: Cyclin-dependent kinase assay cdk2/cyclinE; type: biochemical; conditions: cyclin dependent kinase 2/cyclin E complex; read-out: CDK2E IC50
Method: as §2

Sequence of cdc2/cyclinB (P06493 whole entry, species assumed): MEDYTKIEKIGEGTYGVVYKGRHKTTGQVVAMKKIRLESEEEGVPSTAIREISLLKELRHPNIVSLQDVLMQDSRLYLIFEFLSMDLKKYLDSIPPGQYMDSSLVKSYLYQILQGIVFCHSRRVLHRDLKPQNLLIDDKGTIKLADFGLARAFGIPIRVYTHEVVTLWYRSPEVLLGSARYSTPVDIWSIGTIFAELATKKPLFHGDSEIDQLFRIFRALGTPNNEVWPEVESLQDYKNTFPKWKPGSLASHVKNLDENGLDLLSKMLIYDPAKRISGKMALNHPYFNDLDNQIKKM
Sequence of cdc2/cyclinB (P14635 whole entry partner, species assumed): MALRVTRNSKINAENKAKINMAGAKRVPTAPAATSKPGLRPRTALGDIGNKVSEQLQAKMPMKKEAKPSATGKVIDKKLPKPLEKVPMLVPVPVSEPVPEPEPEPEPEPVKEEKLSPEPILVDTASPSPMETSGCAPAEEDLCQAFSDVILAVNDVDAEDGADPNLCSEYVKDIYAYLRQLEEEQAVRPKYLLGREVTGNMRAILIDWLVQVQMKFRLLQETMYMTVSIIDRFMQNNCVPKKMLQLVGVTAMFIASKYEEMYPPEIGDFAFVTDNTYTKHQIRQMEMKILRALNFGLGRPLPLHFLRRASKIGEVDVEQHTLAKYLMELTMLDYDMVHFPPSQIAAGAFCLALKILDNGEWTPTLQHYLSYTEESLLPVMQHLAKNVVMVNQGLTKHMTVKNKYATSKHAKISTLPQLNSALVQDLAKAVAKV
T1 sequence (P11362 478-767 limits assumed): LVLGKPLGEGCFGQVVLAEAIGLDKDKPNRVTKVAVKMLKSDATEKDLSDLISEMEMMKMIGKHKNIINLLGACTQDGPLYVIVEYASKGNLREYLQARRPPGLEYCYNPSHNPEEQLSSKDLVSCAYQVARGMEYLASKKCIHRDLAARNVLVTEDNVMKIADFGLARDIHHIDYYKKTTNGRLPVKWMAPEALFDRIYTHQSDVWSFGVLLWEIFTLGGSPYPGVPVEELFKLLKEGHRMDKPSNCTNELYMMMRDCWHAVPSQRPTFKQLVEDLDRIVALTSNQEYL
Sequence of N-terminal truncated Wee 1 (P30291 299-569 limits assumed): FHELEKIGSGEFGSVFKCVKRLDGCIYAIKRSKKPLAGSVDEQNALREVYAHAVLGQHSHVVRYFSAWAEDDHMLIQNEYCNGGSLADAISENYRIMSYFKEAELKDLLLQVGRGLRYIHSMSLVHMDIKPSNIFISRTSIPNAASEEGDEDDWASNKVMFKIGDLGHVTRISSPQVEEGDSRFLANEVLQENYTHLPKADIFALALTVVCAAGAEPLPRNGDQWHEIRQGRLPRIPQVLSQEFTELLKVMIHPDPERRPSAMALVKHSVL
Sequence of C-src kinase (P12931 whole entry, the tested form may be a part): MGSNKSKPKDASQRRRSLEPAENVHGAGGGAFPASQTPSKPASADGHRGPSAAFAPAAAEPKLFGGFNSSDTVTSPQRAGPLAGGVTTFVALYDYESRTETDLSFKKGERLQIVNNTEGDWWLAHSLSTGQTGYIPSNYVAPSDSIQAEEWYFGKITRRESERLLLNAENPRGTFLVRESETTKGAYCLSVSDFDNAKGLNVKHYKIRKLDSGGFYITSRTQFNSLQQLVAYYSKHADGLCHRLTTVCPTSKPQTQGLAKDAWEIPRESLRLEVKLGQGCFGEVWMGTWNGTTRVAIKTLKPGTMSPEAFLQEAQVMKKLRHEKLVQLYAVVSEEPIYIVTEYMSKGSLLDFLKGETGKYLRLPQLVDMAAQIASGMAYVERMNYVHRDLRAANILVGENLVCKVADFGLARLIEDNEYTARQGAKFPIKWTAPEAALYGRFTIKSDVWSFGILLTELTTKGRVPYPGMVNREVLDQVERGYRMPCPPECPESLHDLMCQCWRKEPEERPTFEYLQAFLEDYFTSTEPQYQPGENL
Sequence of cdk4/cyclin D1 complex (P11802 whole entry, species assumed): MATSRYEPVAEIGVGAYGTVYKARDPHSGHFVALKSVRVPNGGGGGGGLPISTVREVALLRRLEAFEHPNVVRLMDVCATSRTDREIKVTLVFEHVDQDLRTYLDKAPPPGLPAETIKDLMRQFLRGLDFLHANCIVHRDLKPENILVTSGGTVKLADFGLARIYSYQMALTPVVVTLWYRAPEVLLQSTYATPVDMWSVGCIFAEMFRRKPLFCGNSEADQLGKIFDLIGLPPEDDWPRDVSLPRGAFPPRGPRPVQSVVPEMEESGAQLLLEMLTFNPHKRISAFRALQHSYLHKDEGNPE
Sequence of cdk4/cyclin D1 complex (P24385 whole entry partner, species assumed): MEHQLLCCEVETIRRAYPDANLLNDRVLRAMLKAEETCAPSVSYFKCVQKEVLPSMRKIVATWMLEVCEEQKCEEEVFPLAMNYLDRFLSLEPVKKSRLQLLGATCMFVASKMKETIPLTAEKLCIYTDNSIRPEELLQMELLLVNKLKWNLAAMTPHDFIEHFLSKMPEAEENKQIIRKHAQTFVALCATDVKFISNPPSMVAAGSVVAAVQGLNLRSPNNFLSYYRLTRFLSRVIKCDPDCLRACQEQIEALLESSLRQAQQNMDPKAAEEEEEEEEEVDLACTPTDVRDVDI
T2 sequence (P05622 599-961 limits assumed): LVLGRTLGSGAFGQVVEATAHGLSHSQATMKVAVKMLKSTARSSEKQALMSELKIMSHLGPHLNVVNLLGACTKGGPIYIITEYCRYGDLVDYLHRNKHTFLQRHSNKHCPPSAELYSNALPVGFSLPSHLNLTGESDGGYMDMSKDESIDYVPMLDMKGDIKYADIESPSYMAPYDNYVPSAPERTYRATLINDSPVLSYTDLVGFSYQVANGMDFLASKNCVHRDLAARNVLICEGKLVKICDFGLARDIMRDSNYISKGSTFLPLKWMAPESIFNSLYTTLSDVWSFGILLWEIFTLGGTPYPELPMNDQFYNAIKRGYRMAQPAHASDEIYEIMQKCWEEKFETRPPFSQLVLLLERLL

Compound	IC50 [1]	IC50 (C-src kinase)	inhibition at 5 µM [2]	IC50 [3]	IC50 (cdk4/cyclin D1 complex)	IC50 (cdk2/cyclinA)	IC50 (cdc2/cyclinB)	IC50 (cdk2/cyclinE)	melting point	inhibition at 0.5 µM [2]	PDGF % @ concentration ([3]; @ 5 (unit μm))	inhibition at 50 µM ([2]; @ 50 (unit μm))
O=c1cnc2cnc(Nc3ccncc3)nc2n1C1CCCC1 [Compound 11, 8-Cyclopentyl-2-[(pyridin-4-yl)amino]-8H-pteridin-7-one]	> 50000 nM	11000 nM	31%	> 50000 nM	1250 nM	36 nM	354 nM	50 nM	236 to 238 °C			
O=c1cnc2cnc(Nc3ccc(N4CCNCC4)cc3)nc2n1C1CCCC1 [Compound 16, 8-Cyclopentyl-2-[[4-(piperazin-1-yl)phenyl]amino]-8H-pteridin-7-one]		3300 nM			7 nM	180 nM	750 nM	610 nM				
CN1CCN(c2ccc(Nc3ncc4ncc(=O)n(C5CCCC5)c4n3)cc2)CC1 [Compound 8, 8-Cyclopentyl-2-[[4-(4methylpiperazin-1-yl)phenyl]amino]-8H-pteridin-7-one]	> 50000 nM	3350 nM		6000 nM	41 nM	260 nM		950 nM	208 to 211 °C	41%		
NC1CCN(c2ccc(Nc3ncc4ncc(=O)n(C5CCCC5)c4n3)cc2)C1 (centres unmarked) [Compound 17, 2-[[4-(3-Aminopyrrolidin-1-yl)phenyl]amino]-8-cyclopentyl-8H-pteridin-7-one]				2190 nM	43.5 nM	94 nM	400 nM	1900 nM				
CC(C)(C)OC(=O)N1CCN(c2ccc(Nc3ncc4ncc(=O)n(C5CCCC5)c4n3)cc2)CC1 [Compound 52, 2-[[4-[4(tert-Butoxycarbonyl)piperazin-1-yl]phenyl]amino]-8-cyclopentyl-8H-pteridin-7-one]		> 50000 nM			1800 nM	530 nM		4500 nM	215 to 217 °C			

The remaining lines, values ahead:

IC50 [1]	IC50 (C-src kinase)	inhibition at 5 µM [2]	IC50 [3]	IC50 (cdk4/cyclin D1 complex)	IC50 (cdk2/cyclinA)	IC50 (cdc2/cyclinB)	IC50 (cdk2/cyclinE)	melting point	inhibition at 0.5 µM [2]	PDGF % @ concentration ([3]; @ 5 (unit μm))	inhibition at 50 µM ([2]; @ 50 (unit μm))	Compound
> 50000 nM	3000 nM			47 nM	2780 nM		41000 nM	210 to 211 °C	41%	59% @ 5		Cc1nc2cnc(Nc3ccc(N4CCN(C)CC4)cc3)nc2n(C2CCCC2)c1=O [Compound 9, 8-Cyclopentyl-6methyl-2-[[4-(4-methylpiperazin-1-yl)phenyl]amino]-8H-pteridin-7-one]
> 50000 nM	8470 nM	33%	12000 nM	60 nM	64 nM		650 nM	182 to 184 °C				O=c1cnc2cnc(Nc3ccc(N4CCOCC4)cc3)nc2n1C1CCCC1 [Compound 7, 8-Cyclopentyl-2-[[4-(morpholin-4-yl)phenyl]amino]-8H-pteridin-7-one]
> 50000 nM	34000 nM		> 50000 nM	440 nM	1840 nM		8000 nM	230 to 234 °C			57%	Cc1nc2cnc(Nc3ccc(N4CCOCC4)cc3)nc2n(C2CCCC2)c1=O [Compound 10, 8-Cyclopentyl-6-methyl-2-[[4-(morpholin-4-yl)phenyl]amino]-8H-pteridin-7-one]
